In brackets after ≈: the same amount, converted by molar mass. Activity calls are given as the source filed them. The rule behind the calls is not given here.
Assays:
Cryptococcus neoformans [1] = assay: Antifungal activity against wild type Cryptococcus neoformans H99 assessed as inhibition of fungal growth incubated for 24 to 72 hrs by optical density based analysis; assay type: functional; conditions: time 24-72 hrs
[2] = Selectivity index, ratio of LD50 for human A549 cells to MIC80 for Cryptococcus neoformans H99; assay type: toxicity; conditions: read-out: Selectivity Index
[3] = Cytotoxicity against human A549 cells assessed as cell killing measured after 24 to 48 hrs by MTT assay; assay type: toxicity, cell-based; conditions: time 24-48 hrs, read-out: LD50 (the source's name)
Cryptococcus neoformans [4] = assay: Fungistatic activity against wild type Cryptococcus neoformans H99 assessed as inhibition of fungal growth incubated for 12 to 48 hrs by time-kill assay; assay type: functional, organism-based; conditions: time 12-48 hrs
Cryptococcus neoformans [5] = assay: Antagonistic antifungal activity against wild type Cryptococcus neoformans H99 in presence of caspofungin; assay type: functional, organism-based
Cryptococcus neoformans [6] = assay: Antifungal activity against wild type Cryptococcus neoformans H99 assessed as inhibition of fungal growth in presence of fluconazole; assay type: functional
Cryptococcus neoformans [7] = assay: Antifungal activity against wild type Cryptococcus neoformans H99 assessed as inhibition of fungal growth in presence of caspofungin; assay type: functional
Cryptococcus neoformans [8] = assay: Fungicidal activity against wild type Cryptococcus neoformans H99 assessed as minimum concentration required to kill fungus measured after 24 hrs by time-kill assay; assay type: functional
Cryptococcus neoformans [9] = assay: Antagonistic antifungal activity against wild type Cryptococcus neoformans H99 in presence of amphotericin B; assay type: functional, organism-based
Cryptococcus neoformans [10] = assay: Antifungal activity against wild type Cryptococcus neoformans H99 assessed as inhibition of fungal growth in presence of amphotericin B; assay type: functional
Cryptococcus neoformans [11] = assay: Synergistic antifungal activity against wild type Cryptococcus neoformans H99 assessed as fractional inhibitory concentration index in presence of fluconazole; assay type: functional
Aspergillus fumigatus = assay: Antifungal activity against Aspergillus fumigatus assessed as inhibition of fungal growth incubated for 24 to 72 hrs by optical density based analysis; assay type: functional; conditions: time 24-72 hrs
Cryptococcus neoformans [12] = assay: Synergistic antifungal activity against wild type Cryptococcus neoformans H99 assessed as fractional inhibitory concentration index in presence of caspofungin; assay type: functional
Cryptococcus neoformans [13] = assay: Synergistic antifungal activity against wild type Cryptococcus neoformans H99 assessed as fractional inhibitory concentration index in presence of amphotericin B; assay type: functional
Cryptococcus neoformans [14] = assay: Antagonistic antifungal activity against wild type Cryptococcus neoformans H99 in presence of fluconazole; assay type: functional, organism-based
Candida albicans = assay: Antifungal activity against Candida albicans assessed as inhibition of fungal growth incubated for 24 to 72 hrs by optical density based analysis; assay type: functional; conditions: time 24-72 hrs
Cryptococcus neoformans [15] = assay: Fungicidal activity against wild type Cryptococcus neoformans H99 assessed as minimum concentration required to kill fungus measured after 48 hrs by time-kill assay; assay type: functional
Cryptococcus neoformans [16] = assay: Fungicidal activity against wild type Cryptococcus neoformans H99 assessed as minimum concentration required to kill fungus measured after 12 hrs by time-kill assay; assay type: functional

SMILES | MIC80 (Cryptococcus neoformans [1]) [µg/mL] | selectivity ratio [2] | CC50 [3] [µg/mL] | other results
O=C(N/N=C/c1cc(Br)ccc1O)c1cc2ccccc2cn1 | > 16 | – | – | –
O=C(N/N=C/c1cc(Br)cc(Br)c1O)c1cccs1 | 4 (≈ 9.9 µM) | – | – | –
O=C(N/N=C/c1c(O)ccc2ccccc12)c1ccco1 | > 16 | – | – | –
O=C(N/N=C/c1cc(Br)ccc1O)c1cc2cc(Br)ccc2o1 | > 16 | – | – | –
O=C(N/N=C/c1cc(Br)cc(Br)c1O)c1cc(Br)co1 | 0.06 (≈ 0.129 µM) | 267 | 16 (≈ 34.3 µM) | Activity (Cryptococcus neoformans [4]): Active
O=C(N/N=C/c1cc(Br)ccc1O)c1ccc(C(F)(F)F)o1 | 2 (≈ 5.3 µM) | – | – | –
O=C(N/N=C/c1c(O)ccc2ccccc12)c1cc(Br)c(Br)o1 | 0.12 (≈ 0.274 µM) | 267 | 32 (≈ 73 µM) | Activity (Cryptococcus neoformans [4]): Active
O=C(N/N=C/c1ccc(Br)cc1O)c1cc(Br)c(Br)s1 | 0.002 (≈ 0.00414 µM) | > 533 | > 32 | Activity (Cryptococcus neoformans [5]): inactive; MIC80 (Cryptococcus neoformans [6]): 0.001 µg/mL; MIC80 (Cryptococcus neoformans [7]): 0.001 µg/mL; MFC100 (Cryptococcus neoformans [8]): 0.5 µg/mL (≈ 1.04 µM); Activity (Cryptococcus neoformans [9]): inactive; MIC80 (Cryptococcus neoformans [10]): 0.001 µg/mL; fractional inhibitory concentration index (FICI) (Cryptococcus neoformans [11]): 0.6; MIC80 (Aspergillus fumigatus): 0.06 µg/mL (≈ 0.124 µM); fractional inhibitory concentration index (FICI) (Cryptococcus neoformans [12]): 0.78; fractional inhibitory concentration index (FICI) (Cryptococcus neoformans [13]): 0.78; Activity (Cryptococcus neoformans [14]): inactive; MIC80 (Candida albicans): 0.125 µg/mL (≈ 0.259 µM)
O=C(N/N=C/c1c(O)ccc2ccccc12)c1csc(Br)c1 | 0.25 (≈ 0.666 µM) | > 128 | > 32 | MFC100 (Cryptococcus neoformans [15]): 0.25 µg/mL (≈ 0.666 µM)
O=C(N/N=C/c1cc(Br)ccc1O)c1cc[nH]c1 | 4 (≈ 13 µM) | – | – | –
O=C(N/N=C/c1cc(Br)cc(Br)c1O)c1cc[nH]n1 | 4 (≈ 10.3 µM) | – | – | –
O=C(N/N=C/c1cc(Br)cc(Br)c1O)c1csc(Br)c1 | 0.12 (≈ 0.248 µM) | 133 | 16 (≈ 33.1 µM) | MFC100 (Cryptococcus neoformans [16]): 0.25 µg/mL (≈ 0.518 µM)
OC(Cn1cncn1)(Cn1cncn1)c1ccc(F)cc1F [FLUCONAZOLE] | 2 (≈ 6.53 µM) | – | – | MIC80 (Candida albicans): 1 µg/mL (≈ 3.27 µM)
CC[C@H](C)C[C@H](C)CCCCCCCCC(=O)N[C@H]1C[C@@H](O)[C@@H](NCCN)NC(=O)[C@@H]2[C@@H](O)CCN2C(=O)[C@H]([C@H](O)CCN)NC(=O)[C@H]([C@H](O)[C@@H](O)c2ccc(O)cc2)NC(=O)[C@@H]2C[C@@H](O)CN2C(=O)[C@H]([C@@H](C)O)NC1=O [CASPOFUNGIN] | > 32 | – | – | MIC80 (Candida albicans): 0.5 µg/mL (≈ 0.457 µM)
O=C(N/N=C/c1cc(Br)cc(Br)c1O)c1ccc[nH]1 | 2 (≈ 5.17 µM) | – | – | –
O=C(N/N=C/c1ccc(Br)cc1O)c1ccco1 | 2 (≈ 6.47 µM) | – | – | –
O=C(N/N=C/c1ccc(Br)cc1O)c1ccc[nH]1 | 2 (≈ 6.49 µM) | – | – | –

SMILES | MIC80 (Cryptococcus neoformans [1]) [µg/mL] | selectivity ratio [2] | CC50 [3] [µg/mL] | other results
O=C(N/N=C/c1cc(Br)cc(Br)c1O)c1ccc(Br)o1 | 0.06 (≈ 0.129 µM) | 267 | 16 (≈ 34.3 µM) | Activity (Cryptococcus neoformans [4]): Active
O=C(N/N=C/c1cc(Br)cc(Br)c1O)c1ccc(C(F)(F)F)o1 | 2 (≈ 4.39 µM) | – | – | –
O=C(N/N=C/c1c(O)ccc2ccccc12)c1ccc(C(F)(F)F)o1 | 0.5 (≈ 1.44 µM) | 0.24 | 0.12 (≈ 0.345 µM) | MFC100 (Cryptococcus neoformans [15]): 2 µg/mL (≈ 5.74 µM)
O=C(N/N=C/c1c(O)ccc2ccccc12)c1cncc(Br)c1 | 0.25 (≈ 0.675 µM) | 8 | 2 (≈ 5.4 µM) | MFC100 (Cryptococcus neoformans [15]): 2 µg/mL (≈ 5.4 µM)
O=C(N/N=C/c1cc(Br)ccc1O)c1ccc[nH]1 | 16 (≈ 51.9 µM) | – | – | –
Cc1ccc2c(C)c(C(=O)N/N=C/c3cc(Br)ccc3O)oc2c1 | > 16 | – | – | –
O=C(N/N=C/c1c(O)ccc2ccccc12)c1ncc(Br)cn1 | 2 (≈ 5.39 µM) | – | – | –
O=C(N/N=C/c1cc(Br)cc(Br)c1O)c1csc2ccccc12 | > 16 | – | – | –
O=C(N/N=C/c1cc(Br)ccc1O)c1cc(Br)c(Br)o1 | 0.25 (≈ 0.535 µM) | – | 32 (≈ 68.5 µM) | MFC100 (Cryptococcus neoformans [15]): 0.5 µg/mL (≈ 1.07 µM)
O=C(N/N=C/c1cc(Br)cc(Br)c1O)c1ccc(C(F)(F)F)s1 | 0.06 (≈ 0.127 µM) | 16.6 | 1 (≈ 2.12 µM) | MFC100 (Cryptococcus neoformans [15]): 0.25 µg/mL (≈ 0.53 µM)
O=C(N/N=C/c1ccc(Br)cc1O)c1cc[nH]c1 | 4 (≈ 13 µM) | – | – | –
O=C(N/N=C/c1c(O)ccc2ccccc12)c1cc(Br)c[nH]1 | > 16 | – | – | –
O=C(N/N=C/c1c(O)ccc2ccccc12)c1ccc(Br)o1 | 0.12 (≈ 0.334 µM) | 267 | 32 (≈ 89.1 µM) | MFC100 (Cryptococcus neoformans [15]): 1 µg/mL (≈ 2.78 µM)
O=C(N/N=C/c1cc(Br)ccc1O)c1cncc(Br)c1 | 1 (≈ 2.51 µM) | 4 | 4 (≈ 10 µM) | Activity (Cryptococcus neoformans [4]): Active
O=C(N/N=C/c1cc(Br)ccc1O)c1cc(Br)co1 | 0.25 (≈ 0.644 µM) | 64 | 16 (≈ 41.2 µM) | Activity (Cryptococcus neoformans [4]): Active
O=C(N/N=C/c1ccc(Br)cc1O)c1ccc(C(F)(F)F)s1 | 0.06 (≈ 0.153 µM) | 8.3 | 0.5 (≈ 1.27 µM) | MFC100 (Cryptococcus neoformans [8]): 0.5 µg/mL (≈ 1.27 µM)
C[C@@H](c1ncncc1F)[C@](O)(Cn1cncn1)c1ccc(F)cc1F [VORICONAZOLE] | – | – | – | MIC80 (Aspergillus fumigatus): 0.125 µg/mL (≈ 0.358 µM)
